Patent US20250129116A1, “CYCLOPROPANOL AS A BIOORTHOGONAL WARHEAD FOR ELECTROCHEMICALLY CONTROLLED BIOCONJUGATION APPLICATIONS” (UNIVERSITY OF SOUTH CAROLINA, priority 2023, published 2025)

How the values were obtained:
Vero cells [1] = experiment: Electrochemically assisted cell labeling, FTSCA fluorescence; type: cell-based; conditions: CPol+NaI+Echem group: 5 mM CPol-choline, NaI 100 μM, 0.7 V, 50 μM FTSCA, plate reader
Procedure: Vero cells were cultured in a 100-mm cell culture dish and allowed attachment overnight in a complete medium (DMEM with 10% FBS). When cells reached 60-70% confluency, CPol-choline analog at a final concentration of 5 mM was added into Vero cells and co-cultured for 24 h. The labeled Vero cells were harvested into 5 mL Dulbecco's Phosphate-Buffered Saline (DPBS 1×, CORNING). The cell numbers were counted using a hemocytometer. The cell concentration at 6×10^6 cells was used in the experiment. Subsequently, the Vero cell suspension was treated with NaI (100 μM) and low cell potential (0.7 V) under divided H-cell for 10 min. […] For the fluorescence imaging, the cells in a 24-well plate were fixed with 70% ethanol at −20° C. for 10 min, washed with DPBS three times, and then reacted with 50 μM FTSCA for 1 h at room temperature. After removing the unbound FTSCA, the cells were imaged by a fluorescence microscope (Olympus IX81, Shinjuku-ku, Tokyo, Japan). […] After washing with DPBS, the plate was read using a plate reader (Tecan Infinite M200 microplate reader) with an excitation wavelength of 491 nm and emission cutoff at 520 nm. […]
The intensity of this fluorescence was quantified using a plate reader and visualized using fluorescence microscopy (FIG. 6A). […]

NIH-3T3 cells = experiment: Metabolic incorporation of CPol-choline, lipidomic experiments and LC-MS; type: cell-based; conditions: 5 mM, 24 h
Procedure: (§1) Three million cells (Vero, HeLa, or NIH-3T3) were seeded into a 10-cm cell culture dish and allowed attachment for 24 h in a complete medium (DMEM with 10% FBS) in a CO2 incubator. When cells reached 70-80% confluency, choline analog (PCPol-Cho or ECPol-Cho) at a final concentration of 5 mM was added into cells and co-cultured for another 24 h. The adhered cells were washed with 5 mL ice-cold DPBS (Dulbecco's Phosphate-Buffered Saline, CORNING), and were scratched into ice-cold PBS (5 mL), pooled in a centrifuge tube, and centrifuged at 1,000 rpm for 5 min at room temperature. The supernatant was then aspirated off and the lipids were extracted from the resultant pellet using the modified Bligh Dyer method. Briefly, the cell pellet was treated with a mixture of chloroform and methanol (1 mL of a 1:2 v/v solution), vortexed for 1 min, followed by addition of chloroform (0.5 mL) and 1 M NaCl (0.5 mL), and again vortexed for 1 min. Phase separation was achieved by centrifuging the mixture at 3,220 g at 4° C. for 30 min. The lower lipid-enriched organic layer was separated and dried using nitrogen at room temperature. For all LC-MS/MS analyses, the dried lipids were dissolved in a mixture of chloroform and methanol (200 μL of a 1:1 v/v solution). For all control experiments, the procedure described above was followed without administration of any choline derivatives.
(§2) Choline stands as the predominant head group in phospholipids which are the principal components of all cellular membranes. […] (FIG. 5A). The metabolic incorporation efficiency of CPol-choline was evaluated through lipidomic experiments (FIG. 15A) and LC-MS (FIG. 15B).

Vero cells [2] = experiment: as above; type: cell-based; conditions: 5 mM, 24 h
Procedure: as §1, §2

Hela cells = experiment: as above; type: cell-based; conditions: 5 mM, 24 h
Procedure: as §1, §2

Vero cells [3] = experiment: CellTiter Blue (CTB) cell viability assay; type: cell-based; conditions: 24 h
Procedure: The in vitro cytotoxicity test of CPol-choline analog or other chemicals on Vero cells was determined by CellTiter Blue (CTB) cell viability assay (Promega). Briefly, Vero cells were cultured in 96-well plates at a density of 12.5×10^3 cells per well one day prior experiment. On the following day, the media was replaced by fresh 10% FBS DMEM containing the choline analogs at the concentrations of 0.2, 0.4, 0.8, 1, and 5 mM and incubated for 24 h at 37° C. The cells without the compounds were used as controls. NaI and I2 were also tested at the concentrations varied from 0.01 to 10,000 μM. The experiments were performed in quadruplicate. After 24 h of incubation, the media in each well was replaced by prewarmed media containing 10% CTB reagent and incubated for 2 h at 37° C. and 5% CO2. The medium containing CTB without cells was used as a negative control. Fluorescence intensity was then measured at 560/590 nm (Ex/Em) using SpectraMax M2 Multi-Mode microplate reader (Molecular Devices) to indicate cell viability.

angiotensin I = target: T1, angiotensin I (Homo sapiens, UniProt P01019); experiment: Electrochemically promoted bioconjugation, MALDI-TOF MS and LC-MS; type: biochemical; conditions: NaBr, constant voltage 1.2 V
T1 construct: labeling angiotensin I, which is a peptide hormone responsible for vasoconstriction
Procedure: (§3) Mass spectra were generated with a MALDI-TOF mass spectrometer (rapifleX MALDI Tissuetyper from BRUKER) equipped with a solid-state smart beam and operated in a linear delayed extraction positive ion mode. The samples of conjugated peptide were concentrated using IMCStips (1 mL, IMCS company) and eluted with 70% acetonitrile/0.1% trifluoracetic acid (TFA) following the manufacturer protocol. Of note, the samples of conjugated proteins and viruses were denatured by incubating with guanidinium chloride (8 M) for 5 min at RT, followed by the removal of salts and elution using IMCStips. The resultant samples were spotted on a MALDI plate. These spots were analyzed by MALDI-TOF MS spectrometer with the matrix (Vsample: Vmatrix=1:1). […]
(§4) To further access the compatibility of biomolecules and various CPol derivatives within the electrochemical bioconjugation process, a range of biomolecules including peptides, proteins, and TMV, along with different CPol derivatives, were subjected to the NaI or NaBr redox catalyst and a low cell potential of 0.8 V or 1.2 V individually (FIG. 4A). Electrochemical bioconjugation was employed for labeling angiotensin I, which is a peptide hormone responsible for vasoconstriction and evaluated in blood pressure. […]

bivalirudin = experiment: as above; type: biochemical; conditions: NaBr, constant voltage 1.2 V, batch reaction
Procedure: as §3, §4

[4] = test system: wild-type tobacco mosaic virus (wt-TMV); experiment: Electrochemically promoted bioconjugation, MALDI-TOF MS; type: biochemical
Procedure: To purify wild-type plant virus tobacco mosaic virus (TMV), frozen TMV leaves were crushed and blended. Approximately 3 volumes of phosphate buffer were added to the crushed leaves with an addition of 0.2-0.3% 2-mercaptoethanol. The leaves were blended for 2 min at a low setting and then switched to the highest setting for an additional 3 min. The blended plant sap was filtered through two layers of cheesecloth and then flow through was centrifuged at 10500 rpm (Sorvall SLA 1500) at 4° C. for 20 min. The resulting supernatant was then pooled together and mixed with n-butanol/chloroform at a ratio of 2:1:1 (plant sap/n-butanol/chloroform). The homogenate was stirred for 30 min on ice and then centrifuged at 6000 rpm (SLA 4000) for 10 min at 4° C. The upper aqueous layer was transferred to a beaker, and the virus was precipitated by adding 0.2 M NaCl and 8% (wt/vol) PEG-8000. The mixture was stirred on ice for 60 min and centrifuged at 12000 rpm (Sorvall SLA1500) for 20 min. The white precipitant was then resuspended with 10 mM K phos buffer (pH 7.8). The solution was centrifuged at 9,500 rpm for 15 min at 4° C. to remove excess PEG. The supernatant was transferred to ultracentrifuge tubes (Beckman 50.2 Ti) and the virus was pelleted at 42,000 rpm at 4° C. for 3 h. The virus pellet was resuspended in 100 mM K phos buffer (pH 7.8) overnight at 4° C. UV absorbance was measured at 260 and 280 nm wavelengths to determine the concentration of the virus. […] The purified virus solutions were stored at 4° C.
Mass spectra were generated with a MALDI-TOF mass spectrometer (rapifleX MALDI Tissuetyper from BRUKER) equipped with a solid-state smart beam and operated in a linear delayed extraction positive ion mode. […] These spots were analyzed by MALDI-TOF MS spectrometer with the matrix (Vsample: Vmatrix=1:1). […]
Subsequently, the electrochemical bioconjugation approach was evaluated on lysozyme, a 14 kDa cationic protein. […] Additionally, the electrochemical bioconjugation on bovine serum albumin (BSA) was also evaluated. […]

[5] = target: bovine serum albumin (BSA) (Bos taurus, UniProt P02769); experiment: as above; type: biochemical; conditions: NaX (X=I or Br), 0.8 V or 1.2 V, phosphate buffer 0.1 M pH 7.0
Procedure: (§5) Mass spectra were generated with a MALDI-TOF mass spectrometer (rapifleX MALDI Tissuetyper from BRUKER) equipped with a solid-state smart beam and operated in a linear delayed extraction positive ion mode. The samples of conjugated peptide were concentrated using IMCStips (1 mL, IMCS company) and eluted with 70% acetonitrile/0.1% trifluoracetic acid (TFA) following the manufacturer protocol. Of note, the samples of conjugated proteins and viruses were denatured by incubating with guanidinium chloride (8 M) for 5 min at RT, followed by the removal of salts and elution using IMCStips. The resultant samples were spotted on a MALDI plate. These spots were analyzed by MALDI-TOF MS spectrometer with the matrix (Vsample: Vmatrix=1:1). Matrix of sinapic acid in 50% acetonitrile/0.1% TFA was used for protein measurements, and the matrix of a-Cyano-4-hydroxycinnamic acid in 50% acetonitrile/0.1% TFA was used for peptide measurements.
(§6) To further access the compatibility of biomolecules and various CPol derivatives within the electrochemical bioconjugation process, a range of biomolecules including peptides, proteins, and TMV, along with different CPol derivatives, were subjected to the NaI or NaBr redox catalyst and a low cell potential of 0.8 V or 1.2 V individually (FIG. 4A). Electrochemical bioconjugation was employed for labeling angiotensin I, which is a peptide hormone responsible for vasoconstriction and evaluated in blood pressure. […] However, when modifying angiotensin I with NaI at a voltage of 0.8V, certain side reactions may occur. […] Thus, we conducted a preliminary reaction involving bivalirudin or lysozyme, compound 1, and the resulting Br-substituted ketone without the application of electrochemical conditions (FIGS. 11-12).
(§7) Subsequently, the electrochemical bioconjugation approach was evaluated on lysozyme, a 14 kDa cationic protein. […] Additionally, the electrochemical bioconjugation on bovine serum albumin (BSA) was also evaluated. […] Besides, the conjugated biomolecule was conjugated with biotin-oxyamine under weak acidic conditions (m/z=18063 in FIG. 4F), which can be used in further cell labeling or protein proteomic analysis.

lysozyme = lysozyme (Gallus gallus, UniProt P00698); experiment: as above; type: biochemical; conditions: NaBr, constant voltage 1.2 V, phosphate buffer 0.1 M pH 7.0
Procedure: as §5, §6, §7

Chain of lysozyme (P00698 19-147): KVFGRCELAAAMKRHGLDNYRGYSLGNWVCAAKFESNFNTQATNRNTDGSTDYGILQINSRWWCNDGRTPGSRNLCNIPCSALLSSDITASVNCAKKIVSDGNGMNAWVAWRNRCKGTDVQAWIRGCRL
Chain of bovine serum albumin (BSA) (P02769 25-607): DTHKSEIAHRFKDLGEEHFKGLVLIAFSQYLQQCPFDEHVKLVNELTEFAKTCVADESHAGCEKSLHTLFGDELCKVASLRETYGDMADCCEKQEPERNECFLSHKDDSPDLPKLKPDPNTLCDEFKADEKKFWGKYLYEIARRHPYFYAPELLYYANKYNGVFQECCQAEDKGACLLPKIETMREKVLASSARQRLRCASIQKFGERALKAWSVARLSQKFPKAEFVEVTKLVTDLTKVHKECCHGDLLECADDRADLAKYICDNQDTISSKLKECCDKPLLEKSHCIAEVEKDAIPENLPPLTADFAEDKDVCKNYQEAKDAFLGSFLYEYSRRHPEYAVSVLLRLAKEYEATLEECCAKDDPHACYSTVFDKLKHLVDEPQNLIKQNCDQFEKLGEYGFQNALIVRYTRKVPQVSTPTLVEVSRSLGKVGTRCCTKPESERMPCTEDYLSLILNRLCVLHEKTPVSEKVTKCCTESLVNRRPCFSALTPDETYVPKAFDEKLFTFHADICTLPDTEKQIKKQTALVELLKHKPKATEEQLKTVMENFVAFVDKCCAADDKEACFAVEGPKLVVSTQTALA

## Br.C[N+](C)(CCO)CCCC1(O)CC1 [CPol-choline analog]
Vero cells [1]
  intracellular fluorescence intensity after labeling with FTSCA: strongest fluorescent intensity
NIH-3T3 cells
  metabolic incorporation into cells: successfully incorporated
Vero cells [2]
  metabolic incorporation into cells: successfully incorporated
Hela cells
  metabolic incorporation into cells: successfully incorporated
Vero cells [3]; choline analog 0.2-5 mM
  cytotoxicity on Vero cells: no cytotoxicity was observed

## OC1(c2ccccc2)CC1 [Formula I-1, Phenylcyclopropanol]
Angiotensin I
  labeling of angiotensin I: successful labeling
bivalirudin
  modification of bivalirudin: effectively modified
[4]; CPol derivative 10 eq., NaI, potential of 1.2 V
  conjugation to wt-TMV: modified TMV peak ([M+132]^+) was found
[4]; identical electrochemical conditions (1.2 V) without NaI
  conjugation to wt-TMV: no reaction occurred
[5]
  conjugation to BSA: efficiently conjugated
lysozyme
  conjugation to lysozyme: efficiently conjugated

## CCCCCC1(O)CC1 [Formula I-4, Pentylcyclopropanol]
[4]; NaBr, constant voltage 1.2 V
  conjugation to wt-TMV: successfully modified
[5]
  conjugation to BSA: efficiently conjugated
lysozyme
  conjugation to lysozyme: efficiently conjugated

## OC1(c2ccc(C(F)(F)F)cc2)CC1 [Formula I-7, 1-(4-(trifluoromethyl)phenyl)cyclopropan-1-ol]
lysozyme
  conjugation to lysozyme: efficiently conjugated

## [I-].[Na+] [NaI, sodium iodide]
Vero cells [3]; NaI 0.01 to 10,000 μM
  cytotoxicity on Vero cells: safely co-cultured
